Biological target: T1, EPAC1 (Homo sapiens, UniProt O95398)
T1 sequence (O95398 1-923): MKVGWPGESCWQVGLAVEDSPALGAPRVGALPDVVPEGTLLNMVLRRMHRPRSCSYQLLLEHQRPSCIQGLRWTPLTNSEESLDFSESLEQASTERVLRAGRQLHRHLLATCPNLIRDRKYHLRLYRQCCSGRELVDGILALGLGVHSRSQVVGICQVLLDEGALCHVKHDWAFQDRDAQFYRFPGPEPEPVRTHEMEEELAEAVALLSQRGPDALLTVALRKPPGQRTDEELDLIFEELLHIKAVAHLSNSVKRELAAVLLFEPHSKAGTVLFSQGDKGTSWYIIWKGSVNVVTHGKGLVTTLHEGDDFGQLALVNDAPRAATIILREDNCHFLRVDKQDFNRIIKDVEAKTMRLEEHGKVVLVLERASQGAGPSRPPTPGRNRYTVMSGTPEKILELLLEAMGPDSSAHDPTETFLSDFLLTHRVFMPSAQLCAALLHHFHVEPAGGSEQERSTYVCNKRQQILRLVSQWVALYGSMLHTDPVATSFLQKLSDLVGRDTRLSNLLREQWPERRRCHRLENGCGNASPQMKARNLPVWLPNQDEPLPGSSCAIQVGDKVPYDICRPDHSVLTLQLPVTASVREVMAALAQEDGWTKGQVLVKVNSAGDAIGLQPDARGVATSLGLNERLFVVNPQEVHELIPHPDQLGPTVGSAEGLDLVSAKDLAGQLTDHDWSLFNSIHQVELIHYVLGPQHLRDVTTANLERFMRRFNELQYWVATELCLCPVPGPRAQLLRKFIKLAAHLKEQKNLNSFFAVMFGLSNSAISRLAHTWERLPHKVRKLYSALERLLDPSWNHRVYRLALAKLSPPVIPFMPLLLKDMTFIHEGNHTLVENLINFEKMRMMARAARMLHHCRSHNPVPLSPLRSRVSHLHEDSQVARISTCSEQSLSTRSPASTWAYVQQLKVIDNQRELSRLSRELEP
Assay: Protein stability of EPAC1 in cells following long-term exposure
Assay type: cell-based
Design: expressed in transfected cells; host or cells: U2OS cells (from Professor Holger Rehmann, University of Utrecht)
Details: compared with I942

## COc1ccc2ccc(OCC(=O)NS(=O)(=O)c3ccc(N)cc3OC)cc2c1 [Compound 25n, N-((4-Amino-2-methoxyphenyl)sulfonyl)-2-((7-methoxynaphthalen-2-yl)oxy)acetamide]
  tolerability in terms of protein stability of EPAC1 in cells: better tolerated

Reference: patent US20230150929A1, “SELECTIVE NON-CYCLIC NUCLEOTIDE ACTIVATORS FOR THE CAMP SENSOR EPAC1” (The Board of Regents of The University of Texas System, priority 2020, published 2023)
